According to publication PMC12073402, “A Selective MAP3K1 Inhibitor Facilitates Discovery of NPM1 as a Member of the Network” (Molecules, 2025):

Columns and labels:
Assay in all cases: KiNativ kinome profiling in PANC-1 lysate
Format in all cases: binding
[1] = biological target: T1, ROCK1 (Homo sapiens, UniProt Q13464); details: Other
T1 construct: endogenous in cells; host or cells: PANC-1 cell lysate
Method in brief: (§1)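 PANC-1 lysates were incubated with 5 μM inhibitor or DMSO, then labeled with a desthiobiotin-ATP acyl-phosphate probe that biotinylates conserved kinase lysines. Tryptic peptides were streptavidin-enriched and quantified by LC-MS/MS, reported as % change in MS signal from duplicate treated and duplicate control samples.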

[2] = tested on: MARK2, MARK3; details: 5 µM; Lys2; DLKAENLLLDADMNIK
Method in brief: as §1

[3] = biological target: T2, PKD2 (Homo sapiens, UniProt Q9BZL6); details: Lys1
T2 construct: endogenous in cells; host or cells: PANC-1 cell lysate
Method in brief: as §1

[4] = biological target: T3, AGK (Homo sapiens, UniProt Q53H12); details: ATP
T3 construct: endogenous in cells; host or cells: PANC-1 cell lysate
Method in brief: as §1

[5] = tested on: JNK1, JNK2, JNK3; details: 5 µM; Lys2; DLKPSNIVVK
Method in brief: as §1

[6] = biological target: T4, QSK (Homo sapiens, UniProt Q9Y2K2); details: Lys1
T4 construct: endogenous in cells; host or cells: PANC-1 cell lysate
Method in brief: as §1

[7] = biological target: T5, CK1g3 (Homo sapiens, UniProt Q9Y6M4); details: Lys2
T5 construct: endogenous in cells; host or cells: PANC-1 cell lysate
Method in brief: as §1

[8] = biological target: T6, CK1g1 (Homo sapiens, UniProt Q9HCP0); details: Lys2
T6 construct: endogenous in cells; host or cells: PANC-1 cell lysate
Method in brief: as §1

[9] = biological target: T7, PIK3CD (Homo sapiens, UniProt O00329); details: ATP
T7 construct: endogenous in cells; host or cells: PANC-1 cell lysate
Method in brief: as §1

[10] = biological target: T8, ATM (Homo sapiens, UniProt Q13315); details: ATP
T8 construct: endogenous in cells; host or cells: PANC-1 cell lysate
Method in brief: as §1

[11] = biological target: T9, Erk3 (Homo sapiens, UniProt Q16659); details: Lys2
T9 construct: endogenous in cells; host or cells: PANC-1 lysate
Method in brief: as §1

[12] = tested on: ABL, ARG; details: 5 µM
Method in brief: as §1

[13] = biological target: T10, DNAPK (Homo sapiens, UniProt P78527); details: ATP
T10 construct: endogenous in cells; host or cells: PANC-1 lysate
Method in brief: as §1

[14] = biological target: T11, Erk5 (Homo sapiens, UniProt Q13164); details: Lys2
T11 construct: endogenous in cells; host or cells: PANC-1 lysate
Method in brief: as §1

[15] = tested on: ZC1/HGK, ZC2/TNIK, ZC3/MINK; details: 5 µM; Lys2; DIKGQNVLLTENAEVK
Method in brief: as §1

[16] = biological target: T12, MARK4 (Homo sapiens, UniProt Q96L34)
T12 construct: endogenous in cells; host or cells: PANC-1
Method in brief: as §1

[17] = tested on: NEK6, NEK7; details: 5 µM; Lys2; DIKPANVFITATGVVK
Method in brief: as §1

[18] = biological target: T13, SGK3 (Homo sapiens, UniProt Q96BR1); details: Lys1
T13 construct: endogenous in cells; host or cells: PANC-1 cell lysate
Method in brief: as §1

[19] = biological target: T14, STK33 (Homo sapiens, UniProt Q9BYT3); details: Lys2
T14 construct: endogenous in cells; host or cells: PANC-1 cell lysate
Method in brief: as §1

[20] = biological target: T15, AXL (Homo sapiens, UniProt P30530); details: Activation Loop
T15 construct: endogenous in cells; host or cells: PANC-1 cell lysate
Method in brief: as §1

[21] = biological target: PITSLRE (Homo sapiens, UniProt P21127); details: Lys2
Method in brief: as §1

[22] = biological target: T16, NEK3 (Homo sapiens, UniProt P51956); details: ATP Loop
T16 construct: endogenous in cells; host or cells: PANC-1 cell lysate
Method in brief: as §1

[23] = biological target: T17, LKB1 (Homo sapiens, UniProt Q15831); details: Lys2
T17 construct: we opted to conduct a kinome screen (KiNativ) in PANC-1 cell lysates; endogenous in cells; host or cells: PANC-1 cell lysate
Method in brief: as §1

[24] = biological target: T18, ATR (Homo sapiens, UniProt Q13535); details: ATP
T18 construct: endogenous in cells; host or cells: PANC-1 cell lysate
Method in brief: as §1

[25] = tested on: MAPKAPK2, MAPKAPK3; details: 5 µM; Lys2; DVKPENLLYTSK
Method in brief: as §1

[26] = biological target: T19, RIPK1 (Homo sapiens, UniProt Q13546); details: Lys2
T19 construct: endogenous in cells; host or cells: PANC-1 cell lysate
Method in brief: as §1

[27] = biological target: T20, STLK5 (Homo sapiens, UniProt Q7RTN6)
T20 construct: endogenous in cells; host or cells: PANC-1 cell lysate
Method in brief: as §1

T12 sequence (Q96L34 whole entry): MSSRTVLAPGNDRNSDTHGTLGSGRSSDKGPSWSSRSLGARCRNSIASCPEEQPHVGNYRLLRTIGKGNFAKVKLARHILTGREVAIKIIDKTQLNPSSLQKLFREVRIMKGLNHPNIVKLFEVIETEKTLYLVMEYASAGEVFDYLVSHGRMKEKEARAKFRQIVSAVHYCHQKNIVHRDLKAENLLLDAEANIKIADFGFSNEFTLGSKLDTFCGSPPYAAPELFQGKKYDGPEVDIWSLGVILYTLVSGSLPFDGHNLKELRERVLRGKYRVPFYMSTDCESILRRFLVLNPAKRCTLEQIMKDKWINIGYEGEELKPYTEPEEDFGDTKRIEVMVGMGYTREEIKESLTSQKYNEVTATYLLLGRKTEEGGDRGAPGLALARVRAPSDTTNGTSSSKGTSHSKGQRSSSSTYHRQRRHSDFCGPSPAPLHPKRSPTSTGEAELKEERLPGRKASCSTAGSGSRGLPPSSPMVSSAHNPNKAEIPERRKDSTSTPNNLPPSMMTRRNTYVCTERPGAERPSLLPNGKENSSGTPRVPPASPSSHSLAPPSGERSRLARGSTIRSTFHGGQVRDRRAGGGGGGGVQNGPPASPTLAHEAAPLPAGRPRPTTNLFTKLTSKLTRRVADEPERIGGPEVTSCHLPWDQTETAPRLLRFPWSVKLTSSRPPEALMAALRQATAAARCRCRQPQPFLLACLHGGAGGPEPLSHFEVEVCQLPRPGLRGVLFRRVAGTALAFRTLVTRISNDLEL
T20 sequence (Q7RTN6 whole entry): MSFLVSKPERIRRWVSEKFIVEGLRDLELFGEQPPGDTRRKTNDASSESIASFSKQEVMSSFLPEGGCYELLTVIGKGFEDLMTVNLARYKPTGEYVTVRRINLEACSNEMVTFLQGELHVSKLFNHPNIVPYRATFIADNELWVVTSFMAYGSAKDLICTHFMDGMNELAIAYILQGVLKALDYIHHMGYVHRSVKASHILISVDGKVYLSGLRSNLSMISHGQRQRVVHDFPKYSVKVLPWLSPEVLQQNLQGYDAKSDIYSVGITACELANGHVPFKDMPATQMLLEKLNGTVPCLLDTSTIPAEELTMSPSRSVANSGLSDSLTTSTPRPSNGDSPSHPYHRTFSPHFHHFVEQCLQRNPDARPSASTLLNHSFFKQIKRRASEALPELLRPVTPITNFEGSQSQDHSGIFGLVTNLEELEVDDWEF
T8 sequence (Q13315 whole entry): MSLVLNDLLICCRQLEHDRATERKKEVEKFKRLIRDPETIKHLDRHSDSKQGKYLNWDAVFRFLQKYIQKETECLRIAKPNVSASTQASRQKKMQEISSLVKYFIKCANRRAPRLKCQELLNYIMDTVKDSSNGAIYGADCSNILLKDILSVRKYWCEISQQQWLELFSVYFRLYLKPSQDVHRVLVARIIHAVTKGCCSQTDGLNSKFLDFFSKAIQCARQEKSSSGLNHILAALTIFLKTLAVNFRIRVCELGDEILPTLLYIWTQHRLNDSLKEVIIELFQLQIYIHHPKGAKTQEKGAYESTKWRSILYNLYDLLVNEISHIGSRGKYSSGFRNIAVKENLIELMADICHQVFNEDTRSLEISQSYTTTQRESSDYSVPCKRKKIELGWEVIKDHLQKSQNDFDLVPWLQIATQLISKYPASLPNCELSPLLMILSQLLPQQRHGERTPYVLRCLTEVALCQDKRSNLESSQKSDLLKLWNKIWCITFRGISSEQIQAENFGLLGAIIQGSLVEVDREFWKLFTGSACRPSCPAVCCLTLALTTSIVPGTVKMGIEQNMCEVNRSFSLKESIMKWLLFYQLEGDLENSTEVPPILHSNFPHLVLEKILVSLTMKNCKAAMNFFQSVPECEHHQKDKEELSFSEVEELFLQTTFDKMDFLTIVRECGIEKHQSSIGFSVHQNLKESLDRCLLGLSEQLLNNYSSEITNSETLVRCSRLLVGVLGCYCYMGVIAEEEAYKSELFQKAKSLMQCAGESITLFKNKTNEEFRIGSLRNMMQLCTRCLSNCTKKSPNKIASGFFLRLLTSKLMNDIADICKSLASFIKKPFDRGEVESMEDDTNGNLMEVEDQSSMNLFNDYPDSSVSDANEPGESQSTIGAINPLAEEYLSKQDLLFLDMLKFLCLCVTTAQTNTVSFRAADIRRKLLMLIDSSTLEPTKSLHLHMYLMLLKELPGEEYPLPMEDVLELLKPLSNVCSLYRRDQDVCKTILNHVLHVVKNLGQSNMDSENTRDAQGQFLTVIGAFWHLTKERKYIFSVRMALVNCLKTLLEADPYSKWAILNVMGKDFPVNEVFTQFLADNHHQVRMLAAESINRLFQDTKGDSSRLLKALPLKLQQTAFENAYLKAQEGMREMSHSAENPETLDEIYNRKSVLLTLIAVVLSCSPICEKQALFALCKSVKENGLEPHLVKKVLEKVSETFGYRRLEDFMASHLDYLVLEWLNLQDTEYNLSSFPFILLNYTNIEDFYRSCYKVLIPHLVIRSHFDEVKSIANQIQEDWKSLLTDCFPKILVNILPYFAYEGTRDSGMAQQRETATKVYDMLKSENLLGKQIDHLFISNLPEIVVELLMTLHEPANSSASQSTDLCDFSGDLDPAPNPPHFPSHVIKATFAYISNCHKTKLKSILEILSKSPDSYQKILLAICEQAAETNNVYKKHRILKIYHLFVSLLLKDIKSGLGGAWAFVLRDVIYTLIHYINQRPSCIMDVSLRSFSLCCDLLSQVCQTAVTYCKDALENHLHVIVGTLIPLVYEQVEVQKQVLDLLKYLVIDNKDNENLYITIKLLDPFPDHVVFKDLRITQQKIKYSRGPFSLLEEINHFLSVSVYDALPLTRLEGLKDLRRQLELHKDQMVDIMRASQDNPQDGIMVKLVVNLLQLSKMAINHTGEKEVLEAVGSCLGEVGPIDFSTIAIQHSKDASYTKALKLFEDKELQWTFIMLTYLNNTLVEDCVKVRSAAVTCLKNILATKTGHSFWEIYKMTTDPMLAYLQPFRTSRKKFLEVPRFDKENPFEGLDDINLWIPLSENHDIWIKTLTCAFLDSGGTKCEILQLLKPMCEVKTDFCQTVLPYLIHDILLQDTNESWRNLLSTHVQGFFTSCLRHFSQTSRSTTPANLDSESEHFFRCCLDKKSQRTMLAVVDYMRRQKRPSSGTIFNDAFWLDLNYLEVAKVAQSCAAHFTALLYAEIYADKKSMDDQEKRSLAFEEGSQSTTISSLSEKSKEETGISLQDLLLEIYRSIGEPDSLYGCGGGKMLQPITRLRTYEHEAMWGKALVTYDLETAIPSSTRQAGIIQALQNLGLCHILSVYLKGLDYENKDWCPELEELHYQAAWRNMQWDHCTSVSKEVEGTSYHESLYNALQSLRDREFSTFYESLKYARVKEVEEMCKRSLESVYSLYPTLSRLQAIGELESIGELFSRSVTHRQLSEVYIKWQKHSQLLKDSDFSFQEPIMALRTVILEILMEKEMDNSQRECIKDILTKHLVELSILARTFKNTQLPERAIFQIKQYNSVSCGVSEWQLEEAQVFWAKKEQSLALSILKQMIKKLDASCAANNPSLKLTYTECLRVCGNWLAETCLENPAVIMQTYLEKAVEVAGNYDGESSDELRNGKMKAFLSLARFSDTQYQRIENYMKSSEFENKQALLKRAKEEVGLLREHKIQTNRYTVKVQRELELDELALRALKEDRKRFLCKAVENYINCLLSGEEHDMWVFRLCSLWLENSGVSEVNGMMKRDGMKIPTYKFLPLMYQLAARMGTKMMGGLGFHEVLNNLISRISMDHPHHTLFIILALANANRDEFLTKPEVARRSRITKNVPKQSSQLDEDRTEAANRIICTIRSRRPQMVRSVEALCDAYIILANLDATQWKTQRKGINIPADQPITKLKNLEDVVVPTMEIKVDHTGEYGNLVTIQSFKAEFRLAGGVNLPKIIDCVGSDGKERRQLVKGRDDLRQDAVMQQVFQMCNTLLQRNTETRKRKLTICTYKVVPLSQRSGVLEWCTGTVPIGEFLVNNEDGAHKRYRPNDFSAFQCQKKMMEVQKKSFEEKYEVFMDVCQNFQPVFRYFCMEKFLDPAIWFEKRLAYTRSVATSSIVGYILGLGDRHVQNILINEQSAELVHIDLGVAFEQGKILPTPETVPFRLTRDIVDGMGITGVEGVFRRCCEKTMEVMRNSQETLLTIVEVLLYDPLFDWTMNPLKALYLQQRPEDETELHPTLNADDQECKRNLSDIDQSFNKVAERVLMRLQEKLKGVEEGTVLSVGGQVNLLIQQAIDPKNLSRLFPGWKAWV
T17 sequence (Q15831 whole entry): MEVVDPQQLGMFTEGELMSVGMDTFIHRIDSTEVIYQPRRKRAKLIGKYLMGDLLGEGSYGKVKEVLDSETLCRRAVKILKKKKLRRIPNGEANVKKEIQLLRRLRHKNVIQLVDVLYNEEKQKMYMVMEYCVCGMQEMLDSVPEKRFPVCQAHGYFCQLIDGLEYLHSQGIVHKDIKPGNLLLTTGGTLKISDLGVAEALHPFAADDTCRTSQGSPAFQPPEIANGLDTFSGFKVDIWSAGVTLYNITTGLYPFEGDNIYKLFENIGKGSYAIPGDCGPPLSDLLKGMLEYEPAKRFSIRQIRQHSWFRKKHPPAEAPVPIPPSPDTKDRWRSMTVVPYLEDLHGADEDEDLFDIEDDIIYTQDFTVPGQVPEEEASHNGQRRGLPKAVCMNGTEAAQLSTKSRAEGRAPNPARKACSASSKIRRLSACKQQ
T17 sequence (Q7RTN6 whole entry partner): as the sequence (Q7RTN6 whole entry) above
T17 sequence (Q9Y376 whole entry partner): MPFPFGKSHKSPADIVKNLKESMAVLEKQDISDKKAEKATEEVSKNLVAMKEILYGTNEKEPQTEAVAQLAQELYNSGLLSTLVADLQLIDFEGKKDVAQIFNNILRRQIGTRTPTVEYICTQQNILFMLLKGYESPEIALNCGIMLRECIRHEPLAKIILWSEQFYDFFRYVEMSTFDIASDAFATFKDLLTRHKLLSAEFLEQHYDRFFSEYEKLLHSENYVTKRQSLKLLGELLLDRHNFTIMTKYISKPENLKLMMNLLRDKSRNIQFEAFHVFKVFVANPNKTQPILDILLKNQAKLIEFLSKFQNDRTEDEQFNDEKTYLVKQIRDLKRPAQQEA

Cn1cc(-c2cnc3ccc(NC(=O)Nc4ccc(F)c(C(F)(F)F)c4)cc3n2)cn1 [51-106, 1-(4-Fluoro-3-(trifluoromethyl)phenyl)-3-(3-(1-methyl-1H-pyrazol-4-yl)quinoxalin-6-yl)urea]
inhibition at 5 µM [1]: ≤ 0% | % Inhibition [2]: 11.3% | inhibition at 5 µM [3]: 10.6% | inhibition at 5 µM [4]: ≤ 0% | % Inhibition [5]: NB (NB = No Binding (≤ 0)) | inhibition at 5 µM [6]: ≤ 0% | inhibition at 5 µM [7]: 11.5% | inhibition at 5 µM [8]: ≤ 0% | inhibition at 5 µM [9]: 1.8% | inhibition at 5 µM [10]: 7.4% | inhibition at 5 µM [11]: ≤ 0% | % Inhibition ([12]; Activation Loop, LMTGDTYTAHAGAKFPIK): NB (NB = No Binding (≤ 0)) | % Inhibition ([12]; Lys1, YSLTVAVKTLK): 3.5% | % Inhibition ([12]; Lys1, YSLTVAVKTLKEDTMEVEEFLK): NB (NB = No Binding (≤ 0)) | % Inhibition ([13]; 5 µM, EHPFLVKGGEDLR): NB (NB = No Binding (≤ 0)) | inhibition at 5 µM ([13]; […]): ≤ 0% | inhibition at 5 µM [14]: 11.6% | % Inhibition [15]: NB (NB = No Binding (≤ 0)) | inhibition at 5 µM ([16]; Lys1, EVAIKIIDKTQLNPSSLQK): ≤ 0% | inhibition at 5 µM ([16]; Lys2, DLKAENLLLDAEANIK): 10.3% | % Inhibition [17]: 24.8% | inhibition at 5 µM [18]: ≤ 0% | inhibition at 5 µM [19]: 26.6% | inhibition at 5 µM [20]: ≤ 0% | inhibition at 5 µM [21]: ≤ 0% | inhibition at 5 µM [22]: 5.1% | inhibition at 5 µM [23]: ≤ 0% | inhibition at 5 µM [24]: 2.2% | % Inhibition [25]: NB (NB = No Binding (≤ 0)) | inhibition at 5 µM [26]: 3.7% | % Inhibition ([27]; 5 µM, Lys2, SVKASHILISVDGK): NB (NB = No Binding (≤ 0)) | inhibition at 5 µM ([27]; ATP Loop, […]): ≤ 0%
